# From patent publication US20040053219A1, “Method for analysing human immunodeficiency virus (HIV) phenotypic characteristics” (priority 2000, published 2004)
# Where two headings read alike, the source gives them in different places.
# What was measured:
# [1] = tested on: recombinant virus, specimen R3 (184V, 215F); assay: RVA susceptibility to RTI, recombinant virus from patient specimen R3; assay type: cell-based, HIV-1; conditions: specimen R3, genotype 184V, 21SF; IC50 ratio to NL43; '>' = IC50 above the detectable range in all tests
# Experimental: (§1) The determination of the susceptibility of an HIV virus is performed as follows: 293 T cells are transfected with 7.5 μg of pSRT plasmid linearised with NruI, 0.1 μg of pVSV-G plasmid and 0.5 and 1 μg of product from the HIV reverse transcriptase PCR reaction. The transfection precipitate is removed from the cells after 18 hours of incubation and the fresh growth medium is added. After 24 hours of culture, the supernatant is clarified by centrifugation (500 g, 15 minutes) and transferred on P4 indicator cells which have been pre-incubated with serial dilutions of a reverse transcriptase inhibitor, in triplicate wells, for four hours. The range of inhibitor concentrations used varies according to the compounds. The signal produced by activating the marker gene was developed with CPRG for 48 hours, as for the analysis of the susceptibility to a reverse transcriptase inhibitor and the IC50 index was calculated using the median effect equation.
# (§2) The reproducibility of the method to determine the susceptibility of recombinant virus (RVA) to reverse transcriptase inhibitors (RTI) was evaluated with a series of tests on 5 specimens, selected so as to represent a wide range of susceptibility profiles, between 4 and 8 tests per specimen, using RNA preparations and separate PCR reactions.
# (§3) (b) The Resistance Index is the ratio of the IC50 in the specimen with reference to that of NL43 determined in parallel.
# [2] = tested on: recombinant virus, specimen R2 (multi-compound resistance complex 62V, 75I, 77L, 116Y, 151M; 184V; 181C, 190A); assay: RVA susceptibility to RTI, recombinant virus from patient specimen R2; assay type: cell-based, HIV-1; conditions: specimen R2, genotype 41L, 67N, 69N, 751, 77L, 115F, 208Y, 215F, 219Q, IC50 ratio to NL43, '>' = IC50 above the detectable range in all tests
# Experimental: as §1, §2, §3
# [3] = tested on: recombinant virus, specimen R1 (69N/T, 70R); assay: RVA susceptibility to RTI, recombinant virus from patient specimen R1; assay type: cell-based, HIV-1; conditions: specimen R1, genotype 69N/T, ratio of IC50 of specimen to NL43 in parallel
# Experimental: as §1, §2, §3
# [4] = tested on: recombinant virus, specimen R5 (215Y, 41L, 74V, 100I, 103N); assay: RVA susceptibility to RTI, recombinant virus from patient specimen R5; assay type: cell-based, HIV-1; conditions: for susceptibility / level of resistance (in words): specimen R5; for Resistance Index (geometric mean): specimen R5, genotype 215Y, 41L, 74V, 100I, 103N, IC50 ratio to NL43, '>' = IC50 above the detectable range in all tests
# Experimental: as §1, §2, §3
# [5] = tested on: recombinant virus, specimen R4 (41L, 67N, 69D, 184V, 190A, H208Y, 210W, 215Y); assay: RVA susceptibility to RTI, recombinant virus from patient specimen R4; assay type: cell-based, HIV-1; conditions: specimen R4, genotype 41L, IC50 ratio to NL43, '>' = IC50 above the detectable range in all tests
# Experimental: as §1, §2, §3
# [6] = tested on: NL4-3 reference virus; assay: Recombinant virus assay (RVA): susceptibility to reverse transcriptase inhibitors, single replication cycle, P4 indicator cells; assay type: cell-based, HIV-1
# Experimental: as §1
# The pSRT plasmid comprising a deletion in the region coding for pol ranging from reverse transcriptase codon 24 (base 2618) to reverse transcriptase codon 432 (base 3872) includes all the mutations associated with a resistance phenomenon known to date. The homologous sequences of the PCR reverse transcriptase product ranging 88 base pairs upstream and 186 base pairs downstream from the deletion in pSRT. The transfections to determine the susceptibility to reverse transcriptase inhibitors are performed with a 293T cell line with a strong capacity to be transfected rather than with HeLa cells. This is not a problem since the cells are eliminated from the supernatant containing the virus by centrifugation before the transfer of P4 cells.
# Given that the early phases of virus replication, including reverse transcription, take place in indicator P4 cells in this type of determination, these cells are treated with serial dilutions of reverse transcriptase inhibitors.
# (§4) The inhibitor concentration ranges are selected as a function of the cellular toxicity of each compound and the IC50/IC90 ratio for the susceptibility of resistant isolates (Table 1). […] A range of four dilutions in series, starting at 200 μM, was used for abacavir, enabling the detection of up to 60 times more resistance.
# For RVA reverse transcriptase, the IC50 index is used rather than the IC90 index since the detection of the IC90 index for resistant viruses could require toxic levels of compound for most reverse transcriptase inhibitors.
# [7] = tested on: P4 cells; assay type: cell-based; conditions: cellular toxicity for P4 indicator cells
# Experimental: as §4
# [8] = tested on: 22 viruses from specimens of patients with a standard treatment; assay: RVA susceptibility to RTI, panel of 22 patient viruses compared with NL43; assay type: cell-based, HIV-1; conditions: for median RI (Resistance Index): median over 22 viruses, 3 RVA replicates, reference NL43
# Experimental: as §1
# To determine whether NL43 is a suitable reference virus for comparison with clinical isolates, a panel of specimens taken from patients with a standard treatment were tested on 3 RVA replicates for their susceptibility to reverse transcriptase inhibitors.
# [9] = tested on: NL4.3 virus (partially resistant); assay: Susceptibility of recombinant HIV viruses to fusion inhibitors: NL4.3; assay type: cell-based, HIV-1
# Text: (§5) The invention also relates to an analytical method to determine the susceptibility of an HIV virus to a fusion inhibiting compound targeting HIV-1 gp41 protein, consisting of performing the amplification in step b either with the pair of primers SEQ ID NO: 13, SEQ ID No: 14 followed by a second amplification with the pair of primers SEQ ID No: 15, SEQ ID No: 16, or with the pair of primers SEQ ID No: 17, SEQ ID No: 18 followed by a second amplification with the pair of primers SEQ ID No: 18, SEQ ID No: 16, adding said fusion inhibiting compound or not, possibly at different concentrations, during the culture of the cell host obtained in step e, before step f and comprising in step g the comparison of the expression of the marker gene with and without fusion inhibiting compound targeting HIV-1 gp41. […]
# (§6) The IC50 index for a highly resistant virus NL-DIM ( Rimski L. T. et al. J. Virol. 1998, vol 72, pages 986-993) and for the NL4.3 virus (which is partially resistant) has been measured by reference to the DP178 inhibitor.
# [10] = tested on: highly resistant virus NL-DIM; assay: Susceptibility of recombinant HIV viruses to fusion inhibitors: NL-DIM; assay type: cell-based, HIV-1
# Text: as §5, §6
# [11] = tested on: resistant virus LAI-L91H; assay: Susceptibility of recombinant HIV viruses to fusion inhibitors: LAI-L91H; assay type: cell-based, HIV-1; conditions: reference virus not given
# Text: The invention also relates to an analytical method to determine the susceptibility of an HIV virus to a fusion inhibiting compound targeting HIV-1 gp41 protein, consisting of performing the amplification in step b either with the pair of primers SEQ ID NO: 13, SEQ ID No: 14 followed by a second amplification with the pair of primers SEQ ID No: 15, SEQ ID No: 16, or with the pair of primers SEQ ID No: 17, SEQ ID No: 18 followed by a second amplification with the pair of primers SEQ ID No: 18, SEQ ID No: 16, adding said fusion inhibiting compound or not, possibly at different concentrations, during the culture of the cell host obtained in step e, before step f and comprising in step g the comparison of the expression of the marker gene with and without fusion inhibiting compound targeting HIV-1 gp41.
# The recombinations obtained by performing the amplification of the step (b) with the pair of primers FuA: 5′[…]3′ (SEQ ID No: 23) et FuB: 5′ […]3′ (SEQ ID No: 24) followed by a second amplification step, performed with the primer FuC: 5′[…]3′ (SEQ ID No: 25) and a mixture of the following primers: FuD1: 5′[…]3′ (SEQ ID No: 26) FuD2: 5′[…]3′ (SEQ ID No: 27) are highly efficient. […]
# The increase of the IC50index of the resistant virus LAI-L91H (Labrosse B. et al. J Virol. 2000 vol 74 pages 2142-2150) by reference to RPR103611 has been measured.
# [12] = Human immunodeficiency virus 1, NL43, read-out: Geometric mean IC50
# [13] = Human immunodeficiency virus 1, NL43, NL4-3 reference virus, P4 cells, geometric mean of 20 repeated tests, read-out: Geometric mean IC50
Compound,Resistance Index (geometric mean) [1],Resistance Index (geometric mean) [2],Resistance Index (geometric mean) [3],susceptibility / level of resistance (in words) [4],Resistance Index (geometric mean) [4],Resistance Index (geometric mean) [5],"IC50 [6, 13] [nM]",other results
"O=C1Nc2ccc(Cl)cc2[C@@](C#CC2CC2)(C(F)(F)F)O1 [Efavirenz, efavirenz]",1.0,74.9,1.0,high levels of resistance,>,1.0,–,"IC50 [6, 12]: 716 nM"
"Nc1nc(NC2CC2)c2ncn([C@H]3C=C[C@@H](CO)C3)c2n1 [Abacavir, abacavir]",4.3,>,1.1,–,1.7,4.3,2230,IC50 index / toxicity for P4 cells [7]: approximately 250 μM
"Cc1ccnc2c1NC(=O)c1cccnc1N2C1CC1 [Nevirapine, nevirapine]",1.2,>,2.2,high levels of resistance,580.5,1.2,37,resistance index ([8]; one virus of the panel with mutation on codon 98 (A for S) of reverse transcriptase): 11.0
enfuvirtide,–,–,–,–,–,–,–,"increase of IC50 index ([9]; NL4.3 by reference to LAI): 12,5 times; increase of IC50 index ([9]; NL4.3 by reference to T5A1 virus): 10 times; increase of IC50 index ([10]; NL-DIM by reference to LAI virus (culture adapted)): more than 100 times; increase of IC50 index ([10]; NL-DIM by reference to T5A1 virus (primary plasma virus)): more than 80 times"
C=C(C)[C@@H]1CC[C@]2(C(=O)NCCCCCCCC(=O)N[C@@H](CC(C)C)[C@@H](O)CC(=O)O)CC[C@]3(C)[C@H](CC[C@@H]4[C@@]5(C)CC[C@H](O)C(C)(C)[C@@H]5CC[C@]43C)[C@@H]12 [RPR103611],–,–,–,–,–,–,–,increase of IC50 index [11]: more than 100 times
O=c1[nH]cnc2c1ncn2[C@H]1CC[C@@H](CO)O1 [DDI],3.1,26.9,1.4,–,2.6,3.1,–,"IC50 ([6]; NL4-3 reference virus, P4 cells, geometric mean of 20 repeated tests, read-out: Geometric mean IC50): 1610 nM"
"Cc1cn([C@H]2C=C[C@@H](CO)O2)c(=O)[nH]c1=O [D4T, stavudine]",3.2,43.5,1.4,–,1.7,3.6,–,"median RI (Resistance Index) [8]: approximately 0.92; IC50 [6, 12]: 444 nM"
"Nc1ccn([C@@H]2CS[C@H](CO)O2)c(=O)n1 [3TC, lamivudine]",–,–,1.3,–,1.8,–,1510,median RI (Resistance Index) [8]: ~1.22
"Cc1cn([C@H]2C[C@H](N=[N+]=[N-])[C@@H](CO)O2)c(=O)[nH]c1=O [AZT, zidovudine]",–,–,–,remains susceptible,–,–,18,–
